Test results as given in patent publication US6451836B1, “Method of inhibiting liver glycogen phosphorylase with 2-alkylpyrrolidines” (Novo Nordisk A/S, priority 1995, dated 2002).
pIC50: −log10 of the molar value. Where two headings read alike, the source gives them in different places.

Experiments:
[1] = tested on: female ob/OB mice; test: glucagon mediated increase in blood glucose in mice; type: in vivo; conditions: for Delta plasma glucose: glucagon s.c., female ob/OB mice fasted 3 hours, averages ± S.D., N = 5, control 6.3 ± 1.0; for reduction of blood glucose (in words): glucagon mediated increase in blood glucose in mice, Table 1
Protocol: For in vivo studies, female ob/OB mice (20 g) fasted for 3 hours were used. Test compounds or NaCl (0.9%; controls) were administered intraveneously (hereinafter designated i.v.). Glucagon were administered subcutaneously (herein-after designated s.c.) in order to increase hepatic glucose output derived from glycogen. Blood samples were drawn from the orbital vain and analyzed for glucose using a glucose oxidase method.

[2] = tested on: Rat hepatocytes; test: baseline and glucagon stimulated glucose production from cultured liver cells; type: cell-based; conditions: for Glucose production without glucagon: relative to the basal glucose production (no addition 100%); for Glucose production without glucagon / Glucose production with glucagon (0.5 nM): 70 minutes; for Glucose production with glucagon (0.5 nM): relative to the basal glucose production (no addition 233%); for inhibition of hepatocyte glucose production (in words): basal and glucagon stimulated
Protocol: During the last 24 hours, the hepatocytes were cultured in the presence of high levels of insulin (5 nM) and glucose (15 mM), which result in the incorporation of glucose into glycogen. Therefore, at the time of the experiment, the cells mimic livers from fed animals. Experiments were initiated after 48 hours of culture by 2 times wash of cells and addition of a 20 mM HEPES experimental buffer including balanced salts, but without glucose. The test compound was added simultaneously with the experimental buffer. To some cultures, glucagon (0.5 nM) was added after 10 minutes in order to stimulate glucose production from liver cells. The glucose released into the media, reflecting the glucose production of the liver cells, was measured 70 minutes after the start of the experiment and standardized to cellular DNA content.

[3] = target: T1, α-1,6-glucosidase (Homo sapiens, UniProt P35573); conditions: From: Fleet et al. (Tetrahedron 20 (1986), 5685); read-out: 1,6-glucosidase, concentration resulting in half maximal activity (I.C.50); cited from earlier work
[4] = target: T2, Phosphorylase (Rattus norvegicus, UniProt P09811); test: activity of phosphorylase; type: biochemical; conditions: read-out: Phosphorlyase, concentration resulting in half maximal activity (I.C.50)
T2 sequence (P09811 2-850): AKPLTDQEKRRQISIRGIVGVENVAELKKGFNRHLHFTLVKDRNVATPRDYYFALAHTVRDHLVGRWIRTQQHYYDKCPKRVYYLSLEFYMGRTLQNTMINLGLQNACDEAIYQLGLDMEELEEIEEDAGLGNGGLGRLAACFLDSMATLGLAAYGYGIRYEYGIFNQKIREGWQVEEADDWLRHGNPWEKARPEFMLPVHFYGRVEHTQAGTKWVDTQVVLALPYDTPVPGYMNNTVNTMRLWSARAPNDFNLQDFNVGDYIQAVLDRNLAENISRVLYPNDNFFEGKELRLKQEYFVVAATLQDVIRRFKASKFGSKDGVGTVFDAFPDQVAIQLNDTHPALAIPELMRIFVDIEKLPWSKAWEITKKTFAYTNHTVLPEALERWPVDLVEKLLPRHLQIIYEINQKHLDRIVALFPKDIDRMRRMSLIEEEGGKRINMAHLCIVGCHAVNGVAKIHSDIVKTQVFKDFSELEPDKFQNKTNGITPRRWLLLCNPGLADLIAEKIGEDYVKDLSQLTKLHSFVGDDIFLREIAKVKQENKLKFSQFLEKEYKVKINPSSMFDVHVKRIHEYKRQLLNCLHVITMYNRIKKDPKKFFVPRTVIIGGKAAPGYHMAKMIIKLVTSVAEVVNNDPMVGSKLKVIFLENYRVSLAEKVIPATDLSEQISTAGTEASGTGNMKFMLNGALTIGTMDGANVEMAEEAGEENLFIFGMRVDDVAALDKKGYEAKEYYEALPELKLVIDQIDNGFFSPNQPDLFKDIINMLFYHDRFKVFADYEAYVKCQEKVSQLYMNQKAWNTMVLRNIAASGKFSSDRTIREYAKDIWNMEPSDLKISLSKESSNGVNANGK
Protocol: Phosphorylase was either purchased from Sigma or extracted from rat livers according to Stalmans et. al. (Eur.J.Biochem. 49 (1974), 415). The activity of phosphorylase was determined as described by Bergmeyer (1983; in: Meth. of Enzymatic Analysis, 2, 293-295, Weinheim, (ed.) Verlag Chemie).

[5] = target: T1, α-1,6-glucosidase; test: activity of the glycogen debranching enzyme, α-1,6-glucosidase; type: biochemical; conditions: read-out: 1,6-glucosidase, concentration resulting in half maximal activity (I.C.50)
Protocol: The activity of the glycogen debranching enzyme, α-1,6-glucosidase, was determined as described by Brown and Brown (1966; in : Meth. in Enzymology, 8, 515-524, Neufeld and Ginsburg (Eds.) Academic Press).

[6] = tested on: type 2 diabetic patients; conditions: Sels et al. (Netherland J.Med. 44 (1994), 198); cited from earlier work

T1 sequence (P35573 whole entry): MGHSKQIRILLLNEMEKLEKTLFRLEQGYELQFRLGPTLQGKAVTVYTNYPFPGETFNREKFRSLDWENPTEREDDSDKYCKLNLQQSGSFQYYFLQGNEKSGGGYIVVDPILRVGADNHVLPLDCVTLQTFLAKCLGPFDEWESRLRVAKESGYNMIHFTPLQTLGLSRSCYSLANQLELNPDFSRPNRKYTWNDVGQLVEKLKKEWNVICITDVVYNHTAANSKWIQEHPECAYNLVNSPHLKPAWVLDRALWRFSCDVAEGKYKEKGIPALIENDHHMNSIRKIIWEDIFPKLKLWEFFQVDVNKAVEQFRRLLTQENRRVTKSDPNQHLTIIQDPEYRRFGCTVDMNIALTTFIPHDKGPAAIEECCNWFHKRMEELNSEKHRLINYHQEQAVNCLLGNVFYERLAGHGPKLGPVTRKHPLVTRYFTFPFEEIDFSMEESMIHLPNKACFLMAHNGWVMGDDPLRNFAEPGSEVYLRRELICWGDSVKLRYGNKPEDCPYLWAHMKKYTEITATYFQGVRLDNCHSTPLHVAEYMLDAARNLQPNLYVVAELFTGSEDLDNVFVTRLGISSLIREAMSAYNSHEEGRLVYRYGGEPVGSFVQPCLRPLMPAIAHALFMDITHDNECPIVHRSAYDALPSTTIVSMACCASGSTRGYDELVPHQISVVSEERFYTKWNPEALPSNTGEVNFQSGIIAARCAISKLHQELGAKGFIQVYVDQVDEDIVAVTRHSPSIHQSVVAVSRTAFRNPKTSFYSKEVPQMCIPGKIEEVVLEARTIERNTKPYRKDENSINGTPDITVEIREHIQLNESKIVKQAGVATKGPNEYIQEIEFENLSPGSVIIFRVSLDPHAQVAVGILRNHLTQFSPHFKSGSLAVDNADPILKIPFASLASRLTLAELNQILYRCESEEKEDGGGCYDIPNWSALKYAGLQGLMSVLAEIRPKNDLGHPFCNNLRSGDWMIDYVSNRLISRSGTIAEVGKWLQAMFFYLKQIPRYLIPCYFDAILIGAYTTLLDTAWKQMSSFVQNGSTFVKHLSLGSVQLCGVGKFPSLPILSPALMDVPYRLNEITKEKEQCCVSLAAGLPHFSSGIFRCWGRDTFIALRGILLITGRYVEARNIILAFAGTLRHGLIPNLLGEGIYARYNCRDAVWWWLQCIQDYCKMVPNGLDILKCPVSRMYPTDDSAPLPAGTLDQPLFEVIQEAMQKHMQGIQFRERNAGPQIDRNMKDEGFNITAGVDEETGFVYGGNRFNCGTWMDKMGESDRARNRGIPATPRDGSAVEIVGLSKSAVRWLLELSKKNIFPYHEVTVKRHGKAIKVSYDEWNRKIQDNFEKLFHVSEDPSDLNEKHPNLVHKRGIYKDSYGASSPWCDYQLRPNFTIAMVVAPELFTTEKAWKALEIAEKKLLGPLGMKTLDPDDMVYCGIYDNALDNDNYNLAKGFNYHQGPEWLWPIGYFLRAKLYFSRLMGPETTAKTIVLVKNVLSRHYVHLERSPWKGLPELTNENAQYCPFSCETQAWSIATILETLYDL

Row | pIC50 [4] | pIC50 [5] | SMILES | Delta plasma glucose ([1]; 8 mg/kg i.v.) [mmol/L] | reduction of blood glucose (in words) [1] | Glucose production without glucagon ([2]; 1 μM) [%] | Glucose production with glucagon (0.5 nM) ([2]; 1 μM) [%] | inhibition of hepatocyte glucose production (in words) [2] | pIC50 [3] | Delta plasma glucose ([1]; 50 mg/kg i.v.) [mmol/L] | Glucose production without glucagon ([2]; 50 μM) [%] | Glucose production with glucagon (0.5 nM) ([2]; 50 μM) [%] | fasting plasma glucose after treatment (in words) [6]
1 | – | – | Cl.OC[C@H]1NC[C@@H](O)[C@@H]1O [Compound 2, (2R,3R,4R)-3,4-Dihydroxy-2-(hydroxymethyl)pyrrolidine, hydrochloride] | 0.5 ± 0.6 | potent principle for reducing blood glucose | 19 | 41 | inhibit basal and glucagon stimulated hepatocyte glucose production | 6.74 | – | – | – | –
2 | < 3.70 | 5.96 | OC[C@H]1NC[C@H](O)[C@@H](O)[C@@H]1O [dNOJ, 1-deoxynojirimycin] | – | unable to reduce blood glucose | – | – | insufficient to suppress hepatic glucose production | – | 5.7 ± 1.2 | 92 | 195 | –
3 | – | – | OCCN1C[C@H](O)[C@@H](O)[C@H](O)[C@H]1CO [miglitol] | – | – | – | – | – | – | – | – | – | not reduced
